Measurements: publication PMC5802807, “Heme interaction of the intrinsically disordered N-terminal peptide segment of human cystathionine-β-synthase” (Scientific Reports, 2018)

Target: T1, GB1CBS(1–40) (Homo sapiens, UniProt P35520)
T1 construct: gene CBS; His6 tag cut with thrombin; E. coli BL21(DE3); full-length CBS 551 residues
T1 sequence (P35520 1-40): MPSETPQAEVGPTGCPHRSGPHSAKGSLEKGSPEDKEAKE
Assay: UV/Vis titration, Soret band at […] nm
Type: binding

Q: Which Kd does the source give for `C=CC1=C(C)C2=Cc3c(C=C)c(C)c4[n]3[Fe]([Cl])[n]3c(c(C)c(CCC(=O)O)c3=CC3=NC(=C4)C(C)=C3CCC(=O)O)=CC1=N2` [hemin] here?
A: Its Kd is 2.18 ± 0.64 µM.
